Reference: article PMC11397024, “Strategic Fluorination to Achieve a Potent, Selective, Metabolically Stable, and Orally Bioavailable Inhibitor of CSNK2” (Molecules, 2024)

How the values were obtained:
[1] = CellTiter-Glo cytotoxicity assay; assay type: cell-based, Human; details: human, A549-ACE2 cells, 48 h, CellTiter-Glo, quadruplicate
Procedure: (§1) A549-ACE2 cells were maintained in low-glucose DMEM (Gibco, Waltham, MA, USA) supplemented with 10% FBS, 1% NEAA, and 1% L-glutamine. No antibiotics were used. Cells were plated at 2000 cells/well in a 384-well plate (Costar, Glendale, AZ, USA) and incubated overnight (37 °C, 5% CO2) before adding the compound. Compounds were added in quadruplicate and incubated for 48 h. DMSO percentage was constant across all concentrations of the compound. Cell viability was measured using CellTiter-Glo2 (Promega, Madison, WI, USA) and the luminescence signal was read on a GloMax plate reader (Promega, Madison, WI, USA). Dose–response analysis was performed using GraphPad Prism.

A549-ACE2 cells = experiment: CellTiter-Glo cytotoxicity assay; assay type: cell-based, Human
Procedure: as §1

CLK4 = molecular target: T1, CLK4 (Homo sapiens, UniProt Q9HAZ1); experiment: NanoBRET dose-response CLK4; assay type: cell-based; details: highest concentration tested 30 μM
T1 construct: expressed in transfected cells; host or cells: HEK293

DAPK2 = molecular target: T2, DAPK2 (Homo sapiens, UniProt Q9UIK4); experiment: NanoBRET dose-response DAPK2; assay type: cell-based; details: highest concentration tested 30 μM
T2 construct: expressed in transfected cells; host or cells: HEK293

Multi-dose PK study = assay type: in vivo; details: Balb/c mice, 30 mg/kg p.o. every 12 h; total plasma concentration factored by fu
Procedure: In the multi-dose PK study, three male Balb/c mice (6–8 weeks old, 20–30 g) were dosed via oral (p.o.) administration of four doses of compound 2 (30 mg/kg) as a 10 mL/kg volume of 3 mg/mL solution in DMSO/PEG-400/Water (v/v/v, 10:30:60) every 12 h. At 2, 6, 12, 14, 24, 26, 36, 38, and 48 h after the first dose, 0.025 mL of blood was collected from the dorsal metatarsal vein at each time point. Each blood sample was transferred into a plastic microcentrifuge tube containing EDTA-K2 anticoagulant and mixed well with the anticoagulant, then placed on ice prior to centrifugation at 4000× g for 5 min at 4 °C to obtain plasma. The samples were stored in a freezer at −75 ± 15 °C prior to analysis. […] The final compound concentration was calculated by multiplying the detected concentration by a dilution factor of four.
Concentrations of the test compound in the plasma samples were determined using a Prominence LC-MS/MS system with a DGU-20A5R(C) degasser, LC-30AD pump, CBM-20A system controller, SIL-20AC HT autosampler; Rack changer II, HALO 90A ES-CN (2.7 μm, 2.1 × 50 mm) column, and AB Sciex Triple Quan 5500 LC/MS/MS instrument. […] After centrifugation at 4 °C and 4000 rpm for 15 min, the supernatant was diluted with ultrapure water at a ratio of 1:2 (v/v, 1:2), then 20 µL of diluted supernatant was injected into the LC/MS/MS system for quantitative analysis. […]

[2] = Hepatocyte stability, human; assay type: in vitro ADME; details: cryopreserved hepatocytes, over 2 h
Procedure: Human cryopreserved hepatocytes were supplied by BioIVT (lot QZW, 10 pooled donors, Westbury, NY, USA). Mouse cryopreserved hepatocytes were supplied by BioIVT (lot ZPG, pooled male CD-1). Vials of cryopreserved hepatocytes were removed from storage and thawed in a 37 °C water bath with gentle shaking, and then the contents were poured into a 50 mL thawing medium conical tube. Vials were centrifuged at 100× g for 10 min at room temperature. The thawing medium was aspirated, and hepatocytes were resuspended with a serum-free incubation medium to yield ~1.5 × 10^6 cells/mL. Cell viability and density were counted using AO/PI fluorescence staining, and then cells were diluted with a serum-free incubation medium to a working cell density of 0.5 × 10^6 viable cells/mL. Aliquots of 198 μL of hepatocytes were dispensed into each well of a 96-well noncoated plate. The plate was placed in an incubator for approximately 10 min. […] Peak areas were determined from extracted ion chromatograms, and the slope value, k, was determined by linear regression of the natural logarithm of the remaining percentage of the parent drug vs. incubation time curve. The intrinsic clearance (CLint in μL/min/10^6 cells) was calculated using the relationship CLint = kV/N, where V is the incubation volume (0.2 mL) and N is the number of hepatocytes per well (0.1 × 10^6 cells). […]

[3] = Unbound fraction in mouse plasma; assay type: in vitro ADME; details: read-out: unbound fraction in mouse plasma (fu)
[4] = test system: mouse hepatitis virus (MHV); experiment: MHV assay (MHV-nLuc in DBT cells); details: Murine coronavirus, read-out: MHV pIC50 (converted)
Procedure: DBT cells were cultured at 37 °C in Dulbecco’s modified Eagle medium (DMEM; Sigma-Aldrich, St. Louis, MO, USA) supplemented with 10% fetal bovine serum (FBS; Avantor, Randor, PA, USA) and penicillin and streptomycin (Sigma-Aldrich, St. Louis, MO, USA). DBT cells were plated in 96-well plates to be 80% confluent at the start of the assay. Test compounds or positive control EIDD-1931 were diluted to 15 μM in DMEM. Serial 4-fold dilutions were made in DMEM, providing a concentration range of 15–0.22 μM. Media were aspirated from the DBT cells, and 100 μL of the diluted test compounds was added to the cells for 1 h at 37 °C. After 1 h, MHV-nLuc5 was added at an MOI of 0.1 in 50 μL of DMEM so that the final concentration of the first dilution of the compound was 10 μM (T = 0). After 10 h, the media were aspirated, and the cells were washed with PBS and lysed with passive lysis 5X buffer (Promega, Madison, WI, USA) for 20 min at room temperature. Relative light units (RLUs) were measured using a luminometer (Promega; GloMax, Madison, WI, USA). Triplicate data were analyzed in GraphPad Prism version 9.4.1 for macOS to generate IC50 values.

T1 sequence (Q9HAZ1 whole entry): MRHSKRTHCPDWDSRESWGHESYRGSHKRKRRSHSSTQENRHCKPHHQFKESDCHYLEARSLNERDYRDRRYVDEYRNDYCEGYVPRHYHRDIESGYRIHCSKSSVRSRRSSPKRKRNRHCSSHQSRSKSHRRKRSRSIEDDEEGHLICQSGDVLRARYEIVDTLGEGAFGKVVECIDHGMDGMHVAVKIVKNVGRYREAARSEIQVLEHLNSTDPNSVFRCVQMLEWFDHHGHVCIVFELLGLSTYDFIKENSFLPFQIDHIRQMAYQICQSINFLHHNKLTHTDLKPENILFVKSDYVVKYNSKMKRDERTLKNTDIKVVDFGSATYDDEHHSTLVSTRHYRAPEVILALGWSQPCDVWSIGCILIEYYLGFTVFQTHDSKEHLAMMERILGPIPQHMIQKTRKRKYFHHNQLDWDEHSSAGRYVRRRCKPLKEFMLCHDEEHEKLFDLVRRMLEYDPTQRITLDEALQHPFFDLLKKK
T2 sequence (Q9UIK4 whole entry): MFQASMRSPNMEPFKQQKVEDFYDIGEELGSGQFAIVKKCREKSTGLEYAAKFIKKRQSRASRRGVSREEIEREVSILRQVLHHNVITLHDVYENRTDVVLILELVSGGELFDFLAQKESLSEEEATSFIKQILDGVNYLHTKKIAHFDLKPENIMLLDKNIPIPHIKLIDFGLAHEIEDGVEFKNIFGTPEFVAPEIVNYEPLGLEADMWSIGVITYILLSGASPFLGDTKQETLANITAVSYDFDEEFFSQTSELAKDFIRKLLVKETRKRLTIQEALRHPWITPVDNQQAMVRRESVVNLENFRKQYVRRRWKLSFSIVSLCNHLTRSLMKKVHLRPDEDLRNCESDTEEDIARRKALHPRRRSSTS

## CCC(=O)Nc1cc(Nc2cc(NC3CC3)n3ncc(C#N)c3n2)c(F)cc1N1CCC[C@H](NC)C1 [Compound 2, (S)-N-(5-((3-cyano-7-(cyclopropylamino)pyrazolo[1,5-a]pyrimidin-5-yl)amino)-4-fluoro-2-(3-(methylamino)piperidin-1-yl)phenyl)propionamide]
[1]; 0.1 μM
  viability at 48 h, 0.1 µM: 100%
[1]; 1.0 μM
  viability at 48 h, 1 µM: 76%
A549-ACE2 cells; 0.1 μM
  cytotoxicity in A549-ACE2 cells: no toxicity
A549-ACE2 cells; 1.0 μM
  cytotoxicity in A549-ACE2 cells: low toxicity
CLK4
  IC50: > 30 µM
DAPK2
  IC50: > 30 µM
Multi-dose PK study
  free plasma Cpeak concentration: 120 to 190 nM
[2]
  CLint scaled at 1 μM: 6.9 mL/min/kg
[3]
  fraction unbound: 0.0605
[4]
  IC50: 0.158 µM
